# Data from patent US20240360151A1 (SANOFI, priority 2023, published 2024).
# pIC50: −log10 of the molar value.
# Experiments:
# NLRP3 inflammasome = biological target: T1, NLRP3 inflammasome (Homo sapiens, UniProt Q96P20); assay: IL-1β secretion assay (NLRP3 IC50) in LPS-primed, nigericin-activated THP-1 cells, HTRF; assay type: cell-based; conditions: monocytic THP-1 cells; LPS 10 ng/mL 3 h priming, then compound + nigericin 10 μM 2 h; relative IC50, 10 concentrations, geometric mean
# T1 construct: endogenous in cells; host or cells: THP-1 monocytic cells
# In short: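 THP-1 cells primed with LPS 10 ng/mL for 3 h at 37° C., then compound (10-point 1:3 dilution, 0.1% DMSO) added with 10 μM nigericin for 2 h. Supernatant IL-1β measured by HTRF; relative IC50 from a 4-parameter logistic fit, reported as geometric mean.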
# [1] = system: NF-kB pathway (TNF-α secretion by THP-1 cells); assay: TNF-α secretion assay in LPS-stimulated THP-1 cells, Lumit immunoassay; assay type: cell-based, human; conditions: Homo sapiens, THP-1, 3 h, monocytic THP-1 cells, LPS 10 ng/mL, relative IC50, 10 concentrations, geometric mean
# In short: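 THP-1 monocytes in RPMI with 5% FBS were treated with compound, then stimulated with 10 ng/mL LPS for 3 h. Secreted TNF-α was measured in-plate by Lumit immunoassay. Relative IC50 came from 10-concentration curves fitted with a 4-parameter logistic model, reported as geometric mean.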
# T1 sequence (Q96P20 whole entry): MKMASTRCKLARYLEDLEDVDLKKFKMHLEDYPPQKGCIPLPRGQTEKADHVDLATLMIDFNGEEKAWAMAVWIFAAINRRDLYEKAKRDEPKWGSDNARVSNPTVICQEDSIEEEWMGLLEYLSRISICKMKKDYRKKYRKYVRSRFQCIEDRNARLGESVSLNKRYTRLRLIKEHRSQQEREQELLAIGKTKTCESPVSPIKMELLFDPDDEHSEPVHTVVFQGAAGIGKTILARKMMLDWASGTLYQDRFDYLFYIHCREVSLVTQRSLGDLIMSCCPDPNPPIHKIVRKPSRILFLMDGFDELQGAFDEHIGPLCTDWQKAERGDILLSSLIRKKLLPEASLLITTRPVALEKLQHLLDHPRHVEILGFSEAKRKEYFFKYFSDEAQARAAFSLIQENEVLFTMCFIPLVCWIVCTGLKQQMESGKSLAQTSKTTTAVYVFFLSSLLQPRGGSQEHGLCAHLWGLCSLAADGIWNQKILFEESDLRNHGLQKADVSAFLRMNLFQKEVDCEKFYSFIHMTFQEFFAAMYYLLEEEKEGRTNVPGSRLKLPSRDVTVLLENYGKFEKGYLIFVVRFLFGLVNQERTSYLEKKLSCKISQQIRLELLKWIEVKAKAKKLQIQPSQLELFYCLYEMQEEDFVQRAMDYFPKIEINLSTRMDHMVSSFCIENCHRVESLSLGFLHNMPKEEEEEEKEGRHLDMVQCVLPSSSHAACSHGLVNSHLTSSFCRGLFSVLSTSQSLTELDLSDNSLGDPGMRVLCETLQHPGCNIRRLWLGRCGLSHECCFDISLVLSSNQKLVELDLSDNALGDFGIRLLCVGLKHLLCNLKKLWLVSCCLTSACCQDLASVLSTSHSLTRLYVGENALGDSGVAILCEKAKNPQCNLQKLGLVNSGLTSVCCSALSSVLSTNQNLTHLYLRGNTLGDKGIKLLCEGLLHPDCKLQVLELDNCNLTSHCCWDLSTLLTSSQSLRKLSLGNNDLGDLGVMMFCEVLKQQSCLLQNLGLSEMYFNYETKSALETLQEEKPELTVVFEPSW
Compound,pIC50 (NLRP3 inflammasome),pIC50 [1]
"Cc1cc(C)c(-c2ccc(N3C[C@@H](CO)O[C@@H](C)C3)nn2)c(O)c1 [Example 390, 2-[6-[(2S,6S)-2-(hydroxymethyl)-6-methyl-morpholin-4-yl]pyridazin-3-yl]-3,5-dimethyl-phenol]",7.48,< 5.00
"Cc1cc(C(F)(F)F)cc(O)c1-c1ccc(N2CC[C@H]3CCN(C)C[C@H]32)nn1 [Example 391, 2-[6-[(3aR,7aS)-6-methyl-3,3a,4,5,7,7a-hexahydro-2H-pyrrolo[2,3-c]pyridin-1-yl]pyridazin-3-yl]-3-methyl-5-(trifluoromethyl)phenol]",7.51,< 5.00
"Cc1cc(C(F)(F)F)cc(O)c1-c1ccc(N2CC[C@@H]3CCN(C)C[C@@H]32)nn1 [Example 392, 2-[6-[(3aS,7aR)-6-methyl-3,3a,4,5,7,7a-hexahydro-2H-pyrrolo[2,3-c]pyridin-1-yl]pyridazin-3-yl]-3-methyl-5-(trifluoromethyl)phenol]",9.00,< 5.00
"[O-][S+]1CCN(c2ccc(-c3c(O)cc(Cl)cc3Cl)nn2)CC1 [Example 400, 3,5-dichloro-2-[6-(1-oxo-1,4-thiazinan-4-yl)pyridazin-3-yl]phenol]",7.03,< 5.00
"CC(=O)N1CC[C@H]2OCCN(c3nnc(-c4c(C)cc(C)cc4O)cc3C(F)F)[C@H]2C1 [Example 405, 1-[(4aS,8aR)-4-[4-(difluoromethyl)-6-(2-hydroxy-4,6-dimethyl-phenyl)pyridazin-3-yl]-3,4a,5,7,8,8a-hexahydro-2H-pyrido[4,3-b][1,4]oxazin-6-yl]ethanone]",7.05,< 5.00
"CCc1cccc(O)c1-c1ccc(N2CCO[C@@H]3CCN(CC)C[C@@H]32)nn1 [Example 408, 2-[6-[(4aS,8aR)-6-ethyl-3,4a,5,7,8,8a-hexahydro-2H-pyrido[4,3-b][1,4]oxazin-4-yl]pyridazin-3-yl]-3-ethyl-phenol]",8.70,< 5.00
"CCN1CC[C@H]2OCCN(c3ccc(-c4c(C)cccc4O)nn3)[C@H]2C1 [Example 412, 2-[6-[(4aS,8aR)-6-ethyl-3,4a,5,7,8,8a-hexahydro-2H-pyrido[4,3-b][1,4]oxazin-4-yl]pyridazin-3-yl]-3-methyl-phenol]",7.74,< 5.00
"CCc1cc(C(F)(F)F)cc(O)c1-c1ccc(N2CCO[C@H](CO)C2)nn1 [Example 418, 3-ethyl-2-[6-[(2S)-2-(hydroxymethyl)morpholin-4-yl]pyridazin-3-yl]-5-(trifluoromethyl)phenol]",7.89,< 5.00
"CCc1cccc(O)c1-c1cc(C(F)F)c(N2CCO[C@@H]3CCN(C)C[C@@H]32)nn1 [Example 425, 2-[6-[(4aS,8aR)-6-methyl-3,4a,5,7,8,8a-hexahydro-2H-pyrido[4,3-b][1,4]oxazin-4-yl]-5-(difluoromethyl)pyridazin-3-yl]-3-ethyl-phenol]",7.26,< 5.00
"Cc1cc(N2CCO[C@@H]3CCN(C)C[C@@H]32)nnc1-c1ccc(C(F)(F)F)cc1O [Example 430, 2-[6-[(4aS,8aR)-6-methyl-3,4a,5,7,8,8a-hexahydro-2H-pyrido[4,3-b][1,4]oxazin-4-yl]-4-methyl-pyridazin-3-yl]-5-(trifluoromethyl)phenol]",> 9.52,< 5.00
"CC(=O)N1CC[C@H]2OCCN(c3cc(C)c(-c4ccc(C)cc4O)nn3)[C@H]2C1 [Example 431, 1-[(4aS,8aR)-4-[6-(2-hydroxy-4-methyl-phenyl)-5-methyl-pyridazin-3-yl]-3,4a,5,7,8,8a-hexahydro-2H-pyrido[4,3-b][1,4]oxazin-6-yl]ethanone]",7.21,< 5.00
"CCc1cccc(O)c1-c1ccc(N2CCO[C@@H]3CCN(C(C)C)C[C@@H]32)nn1 [Example 432, 2-[6-[(4aS,8aR)-6-isopropyl-3,4a,5,7,8,8a-hexahydro-2H-pyrido[4,3-b][1,4]oxazin-4-yl]pyridazin-3-yl]-3-ethyl-phenol]",8.30,< 5.00
"Cc1cc(C)c(-c2ccc(N3CCO[C@@H]4CCN(C(C)C)C[C@@H]43)nn2)c(O)c1 [Example 433, 2-[6-[(4aS,8aR)-6-isopropyl-3,4a,5,7,8,8a-hexahydro-2H-pyrido[4,3-b][1,4]oxazin-4-yl]pyridazin-3-yl]-3,5-dimethyl-phenol]",8.70,< 5.00
"Cc1cc(C)c(-c2cc(C)c(N3CCO[C@@H]4CCN(C)C[C@@H]43)nn2)c(O)c1 [Example 434, 2-[6-[(4aS,8aR)-6-methyl-3,4a,5,7,8,8a-hexahydro-2H-pyrido[4,3-b][1,4]oxazin-4-yl]-5-methyl-pyridazin-3-yl]-3,5-dimethyl-phenol]",7.38,< 5.00
"CCN1CC[C@H]2OCCN(c3cc(C)c(-c4ccc(C)cc4O)nn3)[C@H]2C1 [Example 435, 2-[6-[(4aS,8aR)-6-ethyl-3,4a,5,7,8,8a-hexahydro-2H-pyrido[4,3-b][1,4]oxazin-4-yl]-4-methyl-pyridazin-3-yl]-5-methyl-phenol]",8.52,< 5.00
"CCN1CC[C@H]2OCCN(c3cc(C)c(-c4ccc(C(F)(F)F)cc4O)nn3)[C@H]2C1 [Example 436, 2-[6-[(4aS,8aR)-6-ethyl-3,4a,5,7,8,8a-hexahydro-2H-pyrido[4,3-b][1,4]oxazin-4-yl]-4-methyl-pyridazin-3-yl]-5-(trifluoromethyl)phenol]",8.70,< 5.00
"CCN1CC[C@H]2OCCN(c3cc(C)c(-c4ccc(Cl)cc4O)nn3)[C@H]2C1 [Example 437, 2-[6-[(4aS,8aR)-6-ethyl-3,4a,5,7,8,8a-hexahydro-2H-pyrido[4,3-b][1,4]oxazin-4-yl]-4-methyl-pyridazin-3-yl]-5-chloro-phenol]",9.00,< 5.00
"CCc1cc(N2CCO[C@@H]3CCN(C)C[C@@H]32)nnc1-c1ccc(C(F)(F)F)cc1O [Example 443, 2-[6-[(4aS,8aR)-6-methyl-3,4a,5,7,8,8a-hexahydro-2H-pyrido[4,3-b][1,4]oxazin-4-yl]-4-ethyl-pyridazin-3-yl]-5-(trifluoromethyl)phenol]",8.00,< 5.00
